One compound from article PMC8718007, “Decreased glutamate transport in acivicin resistant Leishmania tarentolae” (PLoS Neglected Tropical Diseases, 2021) can be followed below.

For the assay, the target named is LtaPh_2202300 (AAT22) (Leishmania tarentolae, UniProt A0A640KGB0). The assay is described as follows: time-dependent uptake of 3H-glutamate, null mutant vs control strain. The format is cell-based. The settings on record: 0.1 mM glutamate in PBS, room temperature; labelled compound.

Each structure is given as a SMILES string.

Chain of LtaPh_2202300 (AAT22) (A0A640KGB0 entry or part of it): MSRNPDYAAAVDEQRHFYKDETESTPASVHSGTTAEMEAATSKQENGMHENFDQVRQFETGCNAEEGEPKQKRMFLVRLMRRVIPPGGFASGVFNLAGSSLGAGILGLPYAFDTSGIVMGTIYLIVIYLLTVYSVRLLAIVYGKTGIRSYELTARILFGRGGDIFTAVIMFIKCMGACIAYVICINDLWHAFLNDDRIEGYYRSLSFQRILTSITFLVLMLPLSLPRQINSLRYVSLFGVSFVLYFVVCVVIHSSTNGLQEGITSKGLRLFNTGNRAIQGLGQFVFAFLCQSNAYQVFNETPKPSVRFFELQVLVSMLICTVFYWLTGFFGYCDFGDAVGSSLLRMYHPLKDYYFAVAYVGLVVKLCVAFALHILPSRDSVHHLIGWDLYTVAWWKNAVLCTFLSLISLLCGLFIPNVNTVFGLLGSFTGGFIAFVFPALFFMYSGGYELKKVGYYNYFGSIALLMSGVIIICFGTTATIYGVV

In the case of `N[C@@H](CCC(=O)O)C(=O)O` [glutamate], the uptake result is “The accumulation of glutamate but not glutamine was greatly diminished in that recombinant strain”.
